Numbering of substitutions follows the chain as printed. Names may count otherwise.

Data set [1] deals with DIO mice. The experiment in a line: body weight reduction by multiple subcutaneous injections in DIO mice. Format: in vivo. The conditions noted are these: 30 nmol/kg subcutaneous twice a week for 5 weeks, mean of 6 mice. How it is done: 7-week-old C57BL/6Nju mice were fed with a high-fat diet (of about 20% protein and about 60% fat) for 12 weeks for modeling. Feeding conditions: 12 hours of light and 12 hours of darkness cycle every day, ad libitum feeding, temperature 20-25° C., relative humidity 40-70%, ventilation frequency of 10-15 times/hour. According to body weight, water consumption, and food intake, the mice were randomly divided into groups the day before administration. […] Subcutaneous injection treatment was administered twice a week for 5 consecutive weeks, for a total of 10 administrations. After the administration, the body weight, OGTT, body fat ratio, blood lipids and liver function of the mice were measured. The data are shown as mean±standard deviation, and statistically analyzed by One-Way ANOVA.

For data set [2] the following is noted: cynomolgus macaques; cited from earlier work.

Consider Tirzepatide, for which, in data set [1] (DIO mice), the ALT is reported as 19.000 U/L, the AST amounted to 54.683 U/L, the “Blood glucose (fasting)” value is reported as 7.2 mmol/L and the “LDL-C (plasma low-density lipoprotein cholesterol)” value stood at 0.423 mmol/L. Also, in data set [1] (DIO mice), the “TC (plasma total cholesterol)” value is given as 3.923 mmol/L. Besides, the “% Change in weight since inception” value in data set [1] (DIO obese mice) is listed as −22.55%.

B1: natural FGF21: Fibroblast growth factor 21, wild type, SEQ ID NO 1 (protein)
chain: HPIPDSSPLLQFGGQVRQRYLYTDDAQQTEAHLEIREDGTVGGAADQSPESLLQLKALKPGVIQILGVKTSRFLCQRPDGALYGSLHFDPEACSFRELLLEDGYNVYQSEAHGLPLHLPGNKSPHRDPAPRGPARFLPLPGLPPALPEPPGILAPQPPDVGSSDPLSMVGPSQGRSPSYAS
modifications: Wild type FGF21
For B1, the half-life in vivo in data set [2] was 2 to 3 h.

B2: FGF21 L98R, P171G, A180E: FGF21 with the L98R, P171G, and A180E mutations, background literature variant (protein, UniProt Q9NSA1 29-209, looked up, variant L98R P171G A180E)
Fibroblast growth factor 21: B1 chain with L98R, P171G, A180E
In the case of B2, the half-life in vivo result in data set [2] was “about 70 hours”.

Source of the values: patent US12729231B2, “Fusion protein having triple activity and use thereof” (SHANGHAI MINWEI BIOTECHNOLOGY CO., LTD, priority 2023, dated 2026).
